Source: article PMC7088272 (Biotechnology Letters, 2016)

Legend:
[1] = target: T1, ZIKV NS2B-NS3^pro (Zika virus, UniProt A0A024B7W1); assay: FRET-based inhibition assay of ZIKV NS2B-NS3pro protease; assay type: biochemical; conditions: for inhibition at 100 µM: pH 7, 100 µM inhibitor
[2] = target: T1, ZIKV NS2B-NS3^pro; assay: Inhibitor kinetic study; assay type: biochemical
[3] = 26 μM FRET substrate, 8.7 μg enzyme, 50 mM Tris/HCl pH 7.0, 25 °C, 11 min

T1 sequence (A0A024B7W1 1421-1469): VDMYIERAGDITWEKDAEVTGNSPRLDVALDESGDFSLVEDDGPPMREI
T1 sequence (A0A024B7W1 1503-1688): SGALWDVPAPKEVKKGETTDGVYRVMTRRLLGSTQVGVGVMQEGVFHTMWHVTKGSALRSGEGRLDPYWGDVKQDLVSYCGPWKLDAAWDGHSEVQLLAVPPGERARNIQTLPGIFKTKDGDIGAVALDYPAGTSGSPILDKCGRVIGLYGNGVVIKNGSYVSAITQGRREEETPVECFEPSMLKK

Compound | inhibition at 100 µM [1, 3] [%] | IC50 [1] [µM] | further results
O=c1c(O)c(-c2cc(O)c(O)c(O)c2)oc2cc(O)cc(O)c12 [Myricetin] |  |  | Inhibition (%) ([1]; 100 µM inhibitor, 26 μM FRET substrate, 8.7 μg enzyme, 50 mM Tris/HCl pH 7.0, 25 °C, 11 min): more than 40%; Ki [2]: 8.9 ± 1.9 µM; inhibition type ([2]; Lineweaver–Burk and Dixon plots, inhibitor 0–50 µM, substrate 10–50 µM): mixed type
C[C@@H]1O[C@@H](O[C@H]2[C@H](Oc3cc(O)c4c(c3)O[C@H](c3ccc(O)cc3)CC4=O)O[C@H](CO)[C@@H](O)[C@@H]2O)[C@H](O)[C@H](O)[C@H]1O [Naringin] |  |  | inhibitory activity against ZIKV NS2B-NS3^pro (in words) ([1]; 100 µM inhibitor): weak inhibitory activities
O=C(O[C@@H]1Cc2c(O)cc(O)cc2O[C@@H]1c1ccc(O)c(O)c1)c1cc(O)c(O)c(O)c1 [Epicatechin gallate] | > 40 |  | 
O=C(O[C@@H]1Cc2c(O)cc(O)cc2O[C@H]1c1cc(O)c(O)c(O)c1)c1cc(O)c(O)c(O)c1 [Gallocatechin gallate] | > 40 | 99 ± 1.8 | 
O=c1c(O[C@@H]2O[C@H](CO)[C@@H](O)[C@H](O)[C@H]2O)c(-c2ccc(O)cc2)oc2cc(O)cc(O)c12 [Astragalin] | > 40 | 112 ± 5.5 | 
O=c1cc(-c2ccc(O)c(O)c2)oc2cc(O)cc(O)c12 [Luteolin] | > 40 | 53 ± 1.3 | inhibition activity compared to chrysin ([1]; ratio of inhibition at 100 µM): 2.8 times
C[C@@H]1O[C@@H](OC[C@H]2O[C@@H](Oc3c(-c4ccc(O)c(O)c4)oc4cc(O)cc(O)c4c3=O)[C@H](O)[C@@H](O)[C@@H]2O)[C@H](O)[C@H](O)[C@H]1O [Rutin] | > 40 |  | 
